Results: US11622970B2, “BCL-2 inhibitors and their use as pharmaceuticals” (PRELUDE THERAPEUTICS INCORPORATED, priority 2020, dated 2023)
pIC50: −log10 of the molar value.

Molecular target: BCL-2 recombinant protein (Homo sapiens, UniProt P10415)
Assay: Cell free Bcl-2:Bak affinity assay (Bcl-2 Bak), HTRF competition of FAM-Bak peptide
Assay type: binding
Settings: 4 nM BCL-2 recombinant protein, 100 nM FAM-Bak; for pIC50: 10-concentration IC50 mode, read-out: potency (IC50); for inhibition at 1 µM: 1 μM compound, read-out: potency (% inhibition at 1 μM)
Method in brief: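 Compounds in 10-point 3-fold dilution preincubated 10 min at RT with 4 nM GST-BCL-2 (20 mM K phosphate pH 7.5, 50 mM NaCl, 1 mM EDTA, 0.005% Triton X-100), then 100 nM FAM-Bak 10 min, anti-GST-Tb added, 60 min RT dark. HTRF read; % inhibition vs DMSO and positive control, IC50 from curve fit.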

BCL-2 recombinant protein, sequence (P10415 whole entry): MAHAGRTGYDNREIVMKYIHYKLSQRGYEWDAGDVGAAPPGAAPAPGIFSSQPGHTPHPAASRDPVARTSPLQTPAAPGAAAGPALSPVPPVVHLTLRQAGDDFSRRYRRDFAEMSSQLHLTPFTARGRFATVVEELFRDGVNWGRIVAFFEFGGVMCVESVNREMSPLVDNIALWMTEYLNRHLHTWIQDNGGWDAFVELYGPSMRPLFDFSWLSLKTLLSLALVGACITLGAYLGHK

Structure (SMILES)	pIC50	inhibition at 1 µM [%]
Cc1onc(C(=O)NS(=O)(=O)c2ccc(N3CCN(CC4=C(c5ccc(Cl)cc5)CC(C)(C)CC4)CC3)cc2)c1C [Example 17, N-([4-[4-[[2-(4-chlorophenyl)-4,4-dimethylcyclohexen-1-yl]methyl]piperazin-1-yl]phenyl]sulfonyl)-4,5-dimethylisoxazole-3-carboxamide]	–	50 to 90
CC1(C)CCC(CN2CCN(c3ccc(S(=O)(=O)NC(=O)c4ccc(COc5ccccc5)c([N+](=O)[O-])c4)cc3)CC2)=C(c2ccc(Cl)cc2)C1 [Example 52, N-[4-[4-[[2-(4-chlorophenyl)-4,4-dimethylcyclohexen-1-yl]methyl]piperazin-1-yl]phenyl]sulfonyl-3-nitro-4-(phenoxymethyl)benzamide]	–	50 to 90
COc1ccccc1C(=O)NS(=O)(=O)c1ccc(N2CCN(CC3=C(c4ccc(Cl)cc4)CC(C)(C)CC3)CC2)cc1 [Example 11, N-([4-[4-[[2-(4-chlorophenyl)-4,4-dimethylcyclohexen-1-yl]methyl]piperazin-yl]phenyl]sulfonyl)-2-methoxybenzamide]	–	50 to 90
CC1(C)CCC(CN2CCN(c3ccc(S(=O)(=O)NC(=O)CCc4cccnc4)cc3)CC2)=C(c2ccc(Cl)cc2)C1 [Example 31, N-([4-[4-[[2-(4-chlorophenyl)-4,4-dimethylcyclohexen-1-yl]methyl]piperazin-1-yl]phenyl]sulfonyl)-3-(pyridin-3-yl)propanamide]	–	< 50
CC1(C)CCC(CN2CCN(c3ccc(S(=O)(=O)NC(=O)c4ccc([N+](=O)[O-])c(Cl)n4)cc3)CC2)=C(c2ccc(Cl)cc2)C1 [Example 2, 6-chloro-N-[4-[4-[[2-(4-chlorophenyl)-4,4-dimethylcyclohexen-1-yl]methyl]piperazin-1-yl]phenyl]sulfonyl-5-nitropyridine-2-carboxamide]	–	50 to 90
CC1(C)CCC(CN2CCN(c3ccc(S(=O)(=O)NC(=O)c4ccc([N+](=O)[O-])c(COc5ccc(Cl)cc5)c4)cc3)CC2)=C(c2ccc(Cl)cc2)C1 [Example 38, N-([4-[4-[[2-(4-chlorophenyl)-4,4-dimethylcyclohexen-1-yl]methyl]piperazin-1-yl]phenyl]sulfonyl)-3-((4-chlorophenoxy)methyl)-4-nitrobenzamide]	7.00 to 8.00	–
CCNc1c([N+](=O)[O-])cc(C(=O)NS(=O)(=O)c2ccc(N3CCN(CC4=C(c5ccc(Cl)cc5)CC(C)(C)CC4)CC3)cc2)c(Cl)c1C [Example 43, 2-chloro-N-[4-[4-[[2-(4-chlorophenyl)-4,4-dimethylcyclohexen-1-yl]methyl]piperazin-1-yl]phenyl]sulfonyl-4-(ethylamino)-3-methyl-5-nitrobenzamide]	6.00 to 7.00	–
COc1ncc(-c2nc(C(=O)NS(=O)(=O)c3ccc(N4CCN(CC5=C(c6ccc(Cl)cc6)CC(C)(C)CC5)CC4)cc3)ccc2F)cn1 [Example 57, N-[4-[4-[[2-(4-Chlorophenyl)-4,4-dimethylcyclohexen-1-yl]methyl]piperazin-1-yl]phenyl]sulfonyl-5-fluoro-6-(2-methoxypyrimidin-5-yl)pyridine-2-carboxamide]	–	50 to 90
CC1(C)CCC(CN2CCN(c3ccc(S(=O)(=O)NC(=O)c4cc(-c5ccc(F)cc5)no4)cc3)CC2)=C(c2ccc(Cl)cc2)C1 [Example 25, N-([4-[4-[[2-(4-chlorophenyl)-4,4-dimethylcyclohexen-1-yl]methyl]piperazin-1-yl]phenyl]sulfonyl)-3-(4-fluorophenyl)isoxazole-5-carboxamide]	–	50 to 90
CC1(C)CCC(CN2CCN(c3ccc(S(=O)(=O)NC(=O)c4ccc(F)c(-c5ccc6[nH]nnc6c5)n4)cc3)CC2)=C(c2ccc(Cl)cc2)C1 [Example 49, 6-(1H-benzo[d][1,2,3]triazol-5-yl)-N-[4-[4-[[2-(4-chlorophenyl)-4,4-dimethylcyclohexen-1-yl]methyl]piperazin-1-yl]phenyl]sulfonyl-5-fluoro pyridine-2-carboxamide]	–	> 90
CC1(C)CCC(CN2CCN(c3ccc(S(=O)(=O)NC(=O)c4ccc5sccc5c4)cc3)CC2)=C(c2ccc(Cl)cc2)C1 [Example 3, N-[4-[4-[[2-(4-chlorophenyl)-4,4-dimethylcyclohexen-1-yl]methyl]piperazin-1-yl]phenyl]sulfonylbenzo[b]thiophene-5-carboxamide]	–	50 to 90
CC1(C)CCC(CN2CCN(c3ccc(S(=O)(=O)NC(=O)c4cc([N+](=O)[O-])c(NCC5CCOCC5)cc4Cl)cc3)CC2)=C(c2ccc(Cl)cc2)C1 [Example 41, 2-Chloro-N-[4-[4-[[2-(4-chlorophenyl)-4,4-dimethylcyclohexen-1-yl]methyl]piperazin-1-yl]phenyl]sulfonyl-5-nitro-4-(tetrahydropyran-4-ylmethylamino)benzamide]	–	50 to 90
CC1(C)CCC(CN2CCN(c3ccc(S(=O)(=O)NC(=O)c4ccc(F)c(-c5ccc6[nH]ncc6c5)n4)cc3)CC2)=C(c2ccc(Cl)cc2)C1 [Example 48, N-[4-[4-[[2-(4-chlorophenyl)-4,4-dimethylcyclohexen-1-yl]methyl]piperazin-1-yl]phenyl]sulfonyl-5-fluoro-6-(1H-indazol-5-yl)pyridine-2-carboxamide]	–	50 to 90

Continued, values first:

pIC50	inhibition at 1 µM [%]	Structure (SMILES)
6.00 to 7.00	–	COc1cc(-c2nc(C(=O)NS(=O)(=O)c3ccc(N4CCN(CC5=C(c6ccc(Cl)cc6)CC(C)(C)CC5)CC4)cc3Oc3cnc4[nH]ccc4c3)ccc2F)ccn1 [Example 62, N-[4-[4-[[2-(4-Chlorophenyl)-4,4-dimethylcyclohexen-1-yl]methyl]piperazin-1-yl]-2-(1H-pyrrolo[2,3-b]pyridin-5-yloxy)phenyl]sulfonyl-5-fluoro-6-(2-methoxypyridin-4-yl)pyridine-2-carboxamide]
6.00 to 7.00	–	CC1(C)CCC(CN2CCN(c3ccc(S(=O)(=O)NC(=O)c4ccc([N+](=O)[O-])c(COc5ccc(Cl)cc5)c4)c(Oc4cnc5[nH]ccc5c4)c3)CC2)=C(c2ccc(Cl)cc2)C1 [Example 95, 3-[(4-Chlorophenoxy)methyl]-N-[4-[4-[[2-(4-chlorophenyl)-4,4-dimethylcyclohexen-1-yl]methyl]piperazin-1-yl]-2-(1H-pyrrolo[2,3-b]pyridin-5-yloxy)phenyl]sulfonyl-4-nitrobenzamide]
7.00 to 8.00	–	CCNc1c([N+](=O)[O-])cc(C(=O)NS(=O)(=O)c2ccc(N3CCN(CC4=C(c5ccc(Cl)cc5)CC(C)(C)CC4)CC3)cc2Oc2cnc3[nH]ccc3c2)c(Cl)c1C [Example 99, 2-chloro-N-[4-[4-[[2-(4-chlorophenyl)-4,4-dimethylcyclohexen-1-yl]methyl]piperazin-1-yl]-2-(1H-pyrrolo[2,3-b]pyridin-5-yloxy)phenyl]sulfonyl-4-(ethylamino)-3-methyl-5-nitrobenzamide]
7.00 to 8.00	–	CC1(C)CCC(CN2CCN(c3ccc(S(=O)(=O)NC(=O)c4ccc([N+](=O)[O-])c(Cl)n4)c(Oc4cnc5[nH]ccc5c4)c3)CC2)=C(c2ccc(Cl)cc2)C1 [Example 72, 6-Chloro-N-[4-[4-[[2-(4-chlorophenyl)-4,4-dimethylcyclohexen-1-yl]methyl]piperazin-1-yl]-2-(1H-pyrrolo[2,3-b]pyridin-5-yloxy)phenyl]sulfonyl-5-nitropyridine-2-carboxamide]
7.00 to 8.00	–	Cc1c(Cl)c(C(=O)NS(=O)(=O)c2ccc(N3CCN(CC4=C(c5ccc(Cl)cc5)CC(C)(C)CC4)CC3)cc2Oc2cnc3[nH]ccc3c2)cc([N+](=O)[O-])c1OCC1COC1 [Example 103, 2-chloro-N-[4-[4-[[2-(4-chlorophenyl)-4,4-dimethylcyclohexen-1-yl]methyl]piperazin-1-yl]-2-(1H-pyrrolo[2,3-b]pyridin-5-yloxy)phenyl]sulfonyl-3-methyl-5-nitro-4-(oxetan-3-ylmethoxy)benzamide]
6.00 to 7.00	–	CC1(C)CCC(CN2CCN(c3ccc(S(=O)(=O)NC(=O)c4ccc5ccsc5n4)c(Oc4cnc5[nH]ccc5c4)c3)CC2)=C(c2ccc(Cl)cc2)C1 [Example 92, N-[4-[4-[[2-(4-chlorophenyl)-4,4-dimethylcyclohexen-1-yl]methyl]piperazin-1-yl]-2-(1H-pyrrolo[2,3-b]pyridin-5-yloxy)phenyl]sulfonylthieno[2,3-b]pyridine-6-carboxamide]
7.00 to 8.00	–	CC1(C)CCC(CN2CCN(c3ccc(S(=O)(=O)NC(=O)c4ccc(CNc5ccc(Cl)cc5)c([N+](=O)[O-])c4)c(Oc4cnc5[nH]ccc5c4)c3)CC2)=C(c2ccc(Cl)cc2)C1 [Example 91, 4-[(4-chloroanilino)methyl]-N-[4-[4-[[2-(4-chlorophenyl)-4,4-dimethylcyclohexen-1-yl]methyl]piperazin-1-yl]-2-(1H-pyrrolo[2,3-b]pyridin-5-yloxy)phenyl]sulfonyl-3-nitrobenzamide]
> 8.00	–	CC1(C)CCC(CN2CCN(c3ccc(S(=O)(=O)NC(=O)c4ccc(COc5ccc(Cl)cc5)c([N+](=O)[O-])c4)c(Oc4cnc5[nH]ccc5c4)c3)CC2)=C(c2ccc(Cl)cc2)C1 [Example 82]
> 8.00	–	Cc1c(Cl)c(C(=O)NS(=O)(=O)c2ccc(N3CCN(CC4=C(c5ccc(Cl)cc5)CC(C)(C)CC4)CC3)cc2Oc2cnc3[nH]ccc3c2)cc([N+](=O)[O-])c1NCC1CCOCC1 [Example 80, 2-Chloro-N-[4-[4-[[2-(4-chlorophenyl)-4,4-dimethylcyclohexen-1-yl]methyl]piperazin-1-yl]-2-(1H-pyrrolo[2,3-b]pyridin-5-yloxy)phenyl]sulfonyl-3-methyl-5-nitro-4-(oxan-4-ylmethylamino)benzamide]
7.00 to 8.00	–	CC1(C)CCC(CN2CCN(c3ccc(S(=O)(=O)NC(=O)c4ccc(Cl)c(Cl)n4)c(Oc4cnc5[nH]ccc5c4)c3)CC2)=C(c2ccc(Cl)cc2)C1 [Example 68, 5,6-Dichloro-N-[4-[4-[[2-(4-chlorophenyl)-4,4-dimethylcyclohexen-1-yl]methyl]piperazin-1-yl]-2-(1H-pyrrolo[2,3-b]pyridin-5-yloxy)phenyl]sulfonylpyridine-2-carboxamide]
